Measurements published in patent publication US10407467B2, “Polymyxin derivatives and their use in combination therapy together with different antibiotics” (priority 2013, dated 2019).
Counter-ions that a name gives are not always drawn. Like-named read-outs stand apart in the source and are kept apart here. Values belong to the compound of their own block, whether it stands above or below them. Bridge positions count the residues as written; N and C are the ends. Square brackets hold non-standard residues; d marks the D form. Peptide text beside a SMILES is read from it. * marks the point of attachment. ξ: configuration not given here. Acetyl(3-pyridyl) = O=C(Cc1cccnc1)*; Thr(3ξ) = CC(O)[C@H](N)C(=O)O; Dab = NCC[C@H](N)C(=O)O; Bz = O=C(c1ccccc1)*

Assays:
Assay type in all cases: cell-based
Klebsiella pneumoniae [1] = assay: MIC, compound in combination with a second agent (broth microdilution); settings: 1:1 (wt:wt) combination with Rifampicin; MIC is total drug concentration
Method: (§1) To evaluate the potency and spectrum of the compounds both alone and in combination with another agent, susceptibility testing was performed against up to four strains of each of the four Gram negative pathogens, Escherichia coli, Pseudomonas aeruginosa, Klebsiella pneumoniae and Acinetobacter baumannii.
(§2) Ratios of components in a combination, such as 1:1, refers to a weight to weight ratio. The minimum inhibitory concentration (MIC) refers to the total drug concentration (e.g. test compound plus second agent, such as Rifampicin).
(§3) The inoculum was prepared by making a direct suspension of isolated colonies (selected from an 18-24 hour Mueller-Hinton agar plate) adjusted to the 0.5 McFarland standard.
(§4) The assays were performed in duplicate.
(§5) In cases where the duplicate values varied by less than 2-fold, the lower of the two values is reported. If a variation of greater than 2-fold was observed, the assay was considered non-valid. Several of the compounds were subjected to multiple tests, and where this is the case, the MIC reflects the modal value obtained.
(§6) The minimum inhibitory concentration refers to the total drug concentration (e.g. test compound plus Rifampicin). The compounds are used at equal mass within the combination. The weight refers to the mass of compound as used, for example the Example Compounds are used in their TFA or sulphate salt forms.
(§7) MICs refer to the total drug concentration. Thus, where a 1:1 combination is used, this is the amount of the test compound plus the second agent. For comparison, the MIC values for the second agent alone are also given.

Pseudomonas aeruginosa [2] = assay: as above; settings: 1:1 (wt:wt) combination with Rifampicin; MIC is total drug concentration
Method: as §1, §2, §3, §4, §5, §6, §7

Escherichia coli = assay: MIC, sole activity (no second agent); settings: Escherichia coli
Method: as §1, §3, §4, §5
(§8) MICs were determined as described herein, except that a different supplier of Cation-adjusted MHB was used. […] Values are reported relative to Polymyxin B.

Klebsiella pneumoniae [3] = assay: MIC, sole activity (no second agent); settings: Klebsiella pneumoniae
Method: as §1, §3, §4, §5, §8

Pseudomonas aeruginosa [4] = assay: MIC, sole activity (no second agent); settings: Pseudomonas aeruginosa
Method: as §1, §3, §4, §5, §8

[5] = NCTC9001, read-out: MIC E. coli NCTC9001
[6] = CCUG59348, read-out: MIC K. pneumoniae CCUG 59348
[7] = NCTC13442, read-out: MIC K. pneumoniae NCTC 13442

SMILES: CC(C)C[C@@H]1NC(=O)[C@@H](Cc2ccccc2)NC(=O)[C@H](CCN)NC(=O)[C@@H](NC(=O)[C@H](CCN)NC(=O)[C@@H](NC(=O)c2ccccc2)C(C)O)CCNC(=O)[C@H](C(C)O)NC(=O)[C@H](CCN)NC(=O)[C@H](CCN)NC1=O (stereo partly shown) [Example C3, Benzoyl polymyxin B nonapeptide, sulphate salt, reference compound] (Bz-[Thr(3ξ)][Dab][Dab][Dab][dF]L[Dab][Dab][Thr(3ξ)]; lactam 3-C)
MIC K. pneumoniae ATCC-BAA-2146 (Klebsiella pneumoniae [1]): 2 micrograms/mL | MIC K. pneumoniae CCUG-59348 (Klebsiella pneumoniae [1]): 8 micrograms/mL | MIC K. pneumoniae NCTC 13438 (Klebsiella pneumoniae [1]): 2 micrograms/mL | MIC P. aeruginosa CCUG 59626 (Pseudomonas aeruginosa [2]): 1 micrograms/mL

MIC K. pneumoniae ATCC-BAA-2146 (Klebsiella pneumoniae [1]): 1 micrograms/mL | MIC K. pneumoniae CCUG-59348 (Klebsiella pneumoniae [1]): 4 micrograms/mL | MIC K. pneumoniae NCTC 13438 (Klebsiella pneumoniae [1]): 2 micrograms/mL | MIC P. aeruginosa CCUG 59626 (Pseudomonas aeruginosa [2]): 0.25 micrograms/mL
SMILES: CC(C)C[C@@H]1NC(=O)[C@@H](Cc2ccccc2)NC(=O)[C@H](CCN)NC(=O)[C@@H](NC(=O)[C@H](CCN)NC(=O)[C@@H](NC(=O)Cc2cccnc2)C(C)O)CCNC(=O)[C@H](C(C)O)NC(=O)[C@H](CCN)NC(=O)[C@H](CCN)NC1=O (stereo partly shown) [Example C5, 3-pyridyl ethanoyl polymyxin B nonapeptide, reference compound] ({Acetyl(3-pyridyl)}-[Thr(3ξ)][Dab][Dab][Dab][dF]L[Dab][Dab][Thr(3ξ)]; lactam 3-C)

MIC (Escherichia coli; Table 7I, E. coli ATCC25922, second agent none, read-out: MIC E. coli (ATCC25922)): > 32 µg/mL | MIC (Klebsiella pneumoniae [3]; Table 7I, K. pneumoniae ATCC4352, second agent none, read-out: MIC K. pneumoniae (ATCC4352)): 16 µg/mL
SMILES: CC(=O)O[C@H]1C[C@@]2(C)[C@@H](C[C@@H](O)[C@H]3[C@@]4(C)CC[C@@H](O)[C@@H](C)[C@@H]4CC[C@@]32C)/C1=C(\CCC=C(C)C)C(=O)O [Fusidic acid, reference compound]

MIC (Escherichia coli; E. coli NCTC9001, second agent none, read-out: MIC E. coli (NCTC9001)): 0.125 µg/mL | MIC (Klebsiella pneumoniae [3]; ATCCBAA1706, K. pneumoniae ATCC BAA-1706, second agent none, read-out: MIC K. pneumoniae ATCC BAA-1706): 16 µg/mL | MIC (Klebsiella pneumoniae [3]; CCUG59348, K. pneumoniae CCUG 59348, second agent none, read-out: MIC K. pneumoniae CCUG 59348): > 32 µg/mL | MIC (Klebsiella pneumoniae [3]; NCTC13442, K. pneumoniae NCTC 13442, second agent none, read-out: MIC K. pneumoniae NCTC 13442): 16 µg/mL | MIC (Pseudomonas aeruginosa [4]; CCUG59626, P. aeruginosa CCUG 59626, second agent none, read-out: MIC P. aeruginosa CCUG 59626): 16 µg/mL
SMILES: C[C@@H](O)[C@H]1C(=O)N2C(C(=O)O)=C(S[C@@H]3CN[C@H](C(=O)N(C)C)C3)[C@H](C)[C@H]12 [Meropenem, reference compound]

SMILES: Cc1onc(-c2ccccc2)c1C(=O)N[C@@H]1C(=O)N2[C@@H]1SC(C)(C)[C@@H]2C(=O)O [Oxacillin, reference compound]
MIC (Escherichia coli; Table 7G, E. coli ATCC25922, second agent none, read-out: MIC E. coli (ATCC25922)): > 32 µg/mL | MIC (Klebsiella pneumoniae [3]; Table 7G, K. pneumoniae ATCC4352, second agent none, read-out: MIC K. pneumoniae (ATCC4352)): 16 µg/mL

SMILES: CN(C)c1cc(NC(=O)CNC(C)(C)C)c(O)c2c1C[C@H]1C[C@H]3[C@H](N(C)C)C(O)=C(C(N)=O)C(=O)[C@@]3(O)C(O)=C1C2=O [Tigecycline, reference compound]
MIC (Escherichia coli; [5]): 0.125 µg/mL | MIC (Klebsiella pneumoniae [3]; [6]): 2 µg/mL | MIC (Klebsiella pneumoniae [3]; [7]): 2 µg/mL | MIC (Pseudomonas aeruginosa [4]; CCUG59626, read-out: MIC P. aeruginosa CCUG 59626): 16 µg/mL

SMILES: CN[C@H](CC(C)C)C(=O)N[C@H]1C(=O)N[C@@H](CC(N)=O)C(=O)N[C@H]2C(=O)N[C@H]3C(=O)N[C@H](C(=O)N[C@H](C(=O)O)c4cc(O)cc(O)c4-c4cc3ccc4O)[C@H](O)c3ccc(c(Cl)c3)Oc3cc2cc(c3O[C@@H]2O[C@H](CO)[C@@H](O)[C@H](O)[C@H]2O[C@H]2C[C@](C)(N)[C@H](O)[C@H](C)O2)Oc2ccc(cc2Cl)[C@H]1O [Vancomycin, reference compound]
MIC (Escherichia coli; [5]): > 32 µg/mL | MIC (Klebsiella pneumoniae [3]; [6]): > 32 µg/mL | MIC (Klebsiella pneumoniae [3]; CCUG59626, read-out: MIC K. pneumoniae CCUG 59626): > 32 µg/mL | MIC (Klebsiella pneumoniae [3]; [7]): > 32 µg/mL
